Patent publication US20260042802A1, “POLYPEPTIDE AND USE THEREOF” (priority 2024, published 2026)
Read-outs that look alike come from different tables or passages of the source. Where a SMILES comes first, the peptide text is derived from it. Bridges are numbered along the chain shown (N, C = ends).

Target: T1, Nav1.7 channels (Homo sapiens, UniProt Q15858)
T1 construct: expressed in transfected cells; host or cells: HEK293
Assay: Whole-cell patch clamp on Nav1.7 overexpressing HEK293 cells
Format: cell-based
Conditions: for inhibition at 0.3 µM: HEK293, 300 nM, n=6, read-out: current inhibition
Procedure: The recording electrode used in the present example is a glass microelectrode, which is prepared as follows: The glass electrode blanks (outer diameter of 1.50 mm, inner diameter of 0.84 mm) are prepared into single-tube glass microelectrodes with tip diameters of 1-2 μm in four steps using the P-1000 Microelectrode Horizontal Puller for subsequent experiments. Be careful not to touch the heated platinum sheet in the center when pulling the electrode, and be careful not to touch the tip of the pulled electrode to prevent the tip from breaking. Since the tip of the glass microelectrode is highly susceptible to dust attraction, it is generally prepared for use now and should not be left overnight.
Glass microelectrodes are used as follows: rinse clean the glass microelectrodes before use; then put all the glass microelectrodes in a large beaker; add anhydrous ethanol so that the glass microelectrodes are completely immersed in anhydrous ethanol; and place the beaker in an ultrasonic cleaner with ultrasonic vibration for 30 min. Subsequently, pour out the anhydrous ethanol; rinse out the glass microelectrode with ultrapure water 3-4 times; use another small beaker to cover the microelectrode so as not to contaminate the electrode with dust; put the glass microelectrode into the oven for drying; and put the glass microelectrode into a clean box for spare use after drying.
In the patch clamp experiments, the measured sodium currents are corrected for leakage currents, and the primary data of the experiments are recorded using Clampfit 10.6, and the data acquisition is performed by the pCLAMP software. Three to five sweeps are selected for analysis, (sweep, which is a term used in patch clamp software and consists of a series of sampling points) in which the current is in a stable state before the addition of the polypeptide. The average value of the peak current is thus calculated as the control current amplitude. Then 3-5 sweeps in which the current is in a stable state after the addition of polypeptide are selected and analyzed, and the average value of the residual peak current is calculated as the residual current amplitude.
The electrical stimulation effect of polypeptides PPN-01 to PPN-16 on Nav1.7 overexpressing HEK293 cells is studied using the glass microelectrodes obtained from the above preparations and the whole-cell patch clamp techniques (n=1). In a voltage-clamp mode, the clamp voltage is kept at −90 mV; a square-wave stimulus depolarized from −90 mV to +40 mV with a duration of 30 ms is applied; the concentration of each dosing (polypeptide) is 300 nM; and validation is repeated for the six polypeptides that show a significant effect (n=2).
In a voltage-clamp mode, the clamp voltage is kept at −90 m V and a square-wave stimulus depolarized from −90 mV to +40 mV with a duration of 30 ms is applied.
2. The electrical stimulation effect of the polypeptide PPN-01 provided in Example 1 on Nav1.4, Nav1.5, Nav1.6, and Nav1.7 overexpressing HEK293 cells is studied using the glass microelectrodes obtained from the above preparations and employing the whole-cell patch clamp techniques (n=5). In a voltage-clamp mode, the clamp voltage is kept at −90 mV; a square-wave stimulus depolarized from −90 mV to +40 mV with a duration of 30 ms is applied; and a concentration of each dosing (polypeptide) is 300 nM.
3. After establishing whole-cell patch clamp configuration using glass microelectrodes filled with internal electrode solution and HEK293 cells overexpressing Nav1.4, Nav1.5, Nav1.6, or Nav1.7, the polypeptides provided in Example 1 are applied separately. In a voltage-clamp mode, the clamp voltage is kept at −90 m V and a square-wave stimulus depolarized from −90 m V to +40 m V with a duration of 30 ms is applied. […]

T1 sequence (Q15858 whole entry): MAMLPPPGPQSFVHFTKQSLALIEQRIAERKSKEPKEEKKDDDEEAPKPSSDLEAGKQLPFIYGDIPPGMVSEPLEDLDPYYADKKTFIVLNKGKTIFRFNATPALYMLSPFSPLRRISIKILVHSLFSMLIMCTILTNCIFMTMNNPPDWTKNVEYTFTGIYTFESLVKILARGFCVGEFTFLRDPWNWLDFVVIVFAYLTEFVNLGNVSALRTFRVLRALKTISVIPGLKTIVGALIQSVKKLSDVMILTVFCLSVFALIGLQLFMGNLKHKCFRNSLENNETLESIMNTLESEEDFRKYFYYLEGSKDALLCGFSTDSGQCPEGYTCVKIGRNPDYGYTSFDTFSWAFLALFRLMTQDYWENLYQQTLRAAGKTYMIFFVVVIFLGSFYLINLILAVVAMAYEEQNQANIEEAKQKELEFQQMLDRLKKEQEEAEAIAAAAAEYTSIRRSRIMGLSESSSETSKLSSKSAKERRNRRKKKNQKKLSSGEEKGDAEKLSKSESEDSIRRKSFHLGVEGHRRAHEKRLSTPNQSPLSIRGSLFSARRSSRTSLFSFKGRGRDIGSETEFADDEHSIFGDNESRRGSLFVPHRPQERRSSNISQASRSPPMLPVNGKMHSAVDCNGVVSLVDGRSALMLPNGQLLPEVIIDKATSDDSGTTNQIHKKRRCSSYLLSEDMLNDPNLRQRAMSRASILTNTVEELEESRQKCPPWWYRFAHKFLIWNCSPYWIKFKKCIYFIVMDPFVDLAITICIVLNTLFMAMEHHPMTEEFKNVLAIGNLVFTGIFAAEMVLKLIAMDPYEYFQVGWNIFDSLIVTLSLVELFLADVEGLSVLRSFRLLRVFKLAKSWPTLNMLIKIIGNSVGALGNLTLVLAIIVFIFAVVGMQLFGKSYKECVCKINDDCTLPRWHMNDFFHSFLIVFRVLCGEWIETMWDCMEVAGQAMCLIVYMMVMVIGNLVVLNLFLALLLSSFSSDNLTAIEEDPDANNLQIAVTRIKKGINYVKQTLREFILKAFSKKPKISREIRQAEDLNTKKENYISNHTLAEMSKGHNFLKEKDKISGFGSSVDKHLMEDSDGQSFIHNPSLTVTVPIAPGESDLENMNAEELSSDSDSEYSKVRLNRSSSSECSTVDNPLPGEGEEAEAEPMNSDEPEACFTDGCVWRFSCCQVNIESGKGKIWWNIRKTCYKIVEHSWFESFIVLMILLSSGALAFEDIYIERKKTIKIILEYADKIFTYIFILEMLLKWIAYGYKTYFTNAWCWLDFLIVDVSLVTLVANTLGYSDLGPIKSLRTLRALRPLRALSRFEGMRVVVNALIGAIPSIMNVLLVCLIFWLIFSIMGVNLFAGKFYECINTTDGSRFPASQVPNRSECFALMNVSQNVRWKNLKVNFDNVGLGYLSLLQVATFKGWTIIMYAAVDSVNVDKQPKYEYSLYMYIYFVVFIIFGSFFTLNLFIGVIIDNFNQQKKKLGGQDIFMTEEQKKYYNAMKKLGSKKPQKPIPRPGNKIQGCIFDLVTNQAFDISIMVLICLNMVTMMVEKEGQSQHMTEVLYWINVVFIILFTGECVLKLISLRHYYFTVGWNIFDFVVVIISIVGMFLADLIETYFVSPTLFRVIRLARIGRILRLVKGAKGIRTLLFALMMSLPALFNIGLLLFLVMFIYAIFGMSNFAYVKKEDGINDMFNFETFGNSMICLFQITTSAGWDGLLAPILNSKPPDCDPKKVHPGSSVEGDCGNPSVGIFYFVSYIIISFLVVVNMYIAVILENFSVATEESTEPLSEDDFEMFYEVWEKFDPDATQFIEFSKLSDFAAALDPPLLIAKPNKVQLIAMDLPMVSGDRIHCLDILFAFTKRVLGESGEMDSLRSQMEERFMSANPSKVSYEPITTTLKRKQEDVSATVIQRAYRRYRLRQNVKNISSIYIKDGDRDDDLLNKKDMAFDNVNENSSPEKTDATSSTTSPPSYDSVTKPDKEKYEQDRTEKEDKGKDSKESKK

CSCC[C@@H]1NC(=O)CNC(=O)[C@H](CCC(=O)O)NC(=O)[C@@H]2CSSC[C@H](NC(=O)[C@H](Cc3ccc(O)cc3)NC(C)=O)C(=O)N[C@@H](CCC(N)=O)C(=O)N[C@@H](CCCCN)C(=O)N[C@@H](Cc3ccccc3)C(=O)N[C@@H](CC(C)C)C(=O)N[C@@H](C)C(=O)N3CCC[C@H]3C(=O)N[C@H]3CSSC[C@H](NC(=O)[C@H](CCC(=O)O)NC1=O)C(=O)N[C@@H](CCCCN)C(=O)N[C@@H](CC(C)C)C(=O)N[C@@H](Cc1c[nH]c4ccccc14)C(=O)N[C@H](C(=O)N[C@@H](CCCCN)C(=O)N[C@@H](CCCCN)C(=O)N[C@@H](CCCCN)C(=O)N[C@@H](CC(C)C)C(=O)N[C@@H](Cc1c[nH]c4ccccc14)C(N)=O)CSSC[C@H](NC(=O)[C@H](CCCCN)NC(=O)[C@H](CCCNC(=N)N)NC(=O)[C@H](CCC(=O)O)NC(=O)[C@H](CO)NC(=O)[C@H](CC(=O)O)NC3=O)C(=O)N2 [PPN-01] (Ac-YCQKFLAPCDSERKCCEGMECKLWCKKKLW-NH2; disulfide 2-16, 9-21, 15-25)
inhibition of Nav1.7 overexpressing HEK293 cells (current traces) (300 nM polypeptide, clamp −90 mV, depolarized to +40 mV, 30 ms, vs negative control, n=1 (n=2 for six polypeptides)): significant inhibition | inhibition effect on Nav1.7 overexpressing HEK293 cells (300 nM, −90 mV to +40 mV, 30 ms, n=5): significant inhibition effect | inhibition at 0.3 µM (membrane potential +40 mV): 89.6% | inhibition at 0.3 µM (membrane potential −30 mV): 73.6% | inhibition at 0.3 µM (membrane potential −40 mV): 43.6% | Hill coefficient (concentration-response of Nav1.7 peak current inhibition): 1.18
